Reference: the NIST ThermoML archive (doi:10.1016/j.jct.2014.12.020)
± gives the expanded uncertainty stated by the source.

Assay: wn = mass fraction of the nth substance listed
Details: 100 kPa, Liquid; for mass density: Vibrating tube method; for viscosity: Concentric cylinders viscometry

## C[C@H](O)C(=O)[O-].C[N+](C)(C)CCO + O
318.15 K, w2 = 0.004
  mass density: 1125.4 ± 1.4 kg/m3
318.15 K, w2 = 0.011
  mass density: 1125.9 ± 1.4 kg/m3
318.15 K, w2 = 0.02
  mass density: 1126.1 ± 1.4 kg/m3
318.15 K, w2 = 0.029
  mass density: 1125.5 ± 1.4 kg/m3
318.15 K, w2 = 0.045
  mass density: 1124.7 ± 1.4 kg/m3
318.15 K, w2 = 0.066
  mass density: 1123.8 ± 1.3 kg/m3
318.15 K, w2 = 0.077
  mass density: 1123.3 ± 1.3 kg/m3
318.15 K, w2 = 0.121
  mass density: 1121 ± 1.3 kg/m3
318.15 K, w2 = 0.167
  mass density: 1119.5 ± 1.2 kg/m3
318.15 K, w2 = 0.218
  mass density: 1115.2 ± 1.2 kg/m3
318.15 K, w2 = 0.24
  mass density: 1111.2 ± 1.2 kg/m3
323.15 K, w2 = 0.004
  viscosity: 369.4 ± 12 mPa·s
  mass density: 1122.3 ± 1.4 kg/m3
323.15 K, w2 = 0.011
  viscosity: 296.2 ± 9.3 mPa·s
  mass density: 1122.7 ± 1.4 kg/m3
323.15 K, w2 = 0.02
  viscosity: 197.4 ± 20 mPa·s
  mass density: 1123 ± 1.4 kg/m3
323.15 K, w2 = 0.029
  viscosity: 184.4 ± 5.1 mPa·s
  mass density: 1122.4 ± 1.4 kg/m3
323.15 K, w2 = 0.045
  viscosity: 130.6 ± 3.3 mPa·s
  mass density: 1121.6 ± 1.4 kg/m3
323.15 K, w2 = 0.066
  viscosity: 90.4 ± 2.1 mPa·s
  mass density: 1120.8 ± 1.3 kg/m3
323.15 K, w2 = 0.077
  viscosity: 74.1 ± 1.7 mPa·s
  mass density: 1120.2 ± 1.3 kg/m3
323.15 K, w2 = 0.121
  viscosity: 41.5 ± 0.9 mPa·s
  mass density: 1118 ± 1.3 kg/m3
323.15 K, w2 = 0.167
  viscosity: 27.4 ± 0.6 mPa·s
  mass density: 1116.3 ± 1.2 kg/m3
323.15 K, w2 = 0.218
  viscosity: 17.9 ± 0.4 mPa·s
  mass density: 1112 ± 1.2 kg/m3
323.15 K, w2 = 0.24
  viscosity: 13.2 ± 0.3 mPa·s
  mass density: 1108 ± 1.2 kg/m3
328.15 K, w2 = 0.004
  viscosity: 275.9 ± 8.5 mPa·s
  mass density: 1119.2 ± 1.4 kg/m3
328.15 K, w2 = 0.011
  viscosity: 223.5 ± 6.5 mPa·s
  mass density: 1119.8 ± 1.4 kg/m3
328.15 K, w2 = 0.02
  viscosity: 151.8 ± 15 mPa·s
  mass density: 1120.1 ± 1.4 kg/m3
328.15 K, w2 = 0.029
  viscosity: 142.3 ± 3.7 mPa·s
  mass density: 1119.4 ± 1.4 kg/m3
328.15 K, w2 = 0.045
  viscosity: 102.3 ± 2.5 mPa·s
  mass density: 1118.6 ± 1.4 kg/m3
328.15 K, w2 = 0.066
  viscosity: 71.9 ± 1.6 mPa·s
  mass density: 1117.7 ± 1.3 kg/m3
328.15 K, w2 = 0.077
  viscosity: 59.3 ± 1.3 mPa·s
  mass density: 1117.1 ± 1.3 kg/m3
328.15 K, w2 = 0.121
  viscosity: 33.9 ± 0.8 mPa·s
  mass density: 1114.9 ± 1.3 kg/m3
328.15 K, w2 = 0.167
  viscosity: 22.7 ± 0.5 mPa·s
  mass density: 1113.2 ± 1.2 kg/m3
328.15 K, w2 = 0.218
  viscosity: 15 ± 0.3 mPa·s
  mass density: 1108.8 ± 1.2 kg/m3
328.15 K, w2 = 0.24
  viscosity: 11.2 ± 0.3 mPa·s
  mass density: 1104.8 ± 1.2 kg/m3
333.15 K, w2 = 0.004
  viscosity: 210.2 ± 6 mPa·s
  mass density: 1116.3 ± 1.4 kg/m3
333.15 K, w2 = 0.011
  viscosity: 171.9 ± 4.7 mPa·s
  mass density: 1116.8 ± 1.4 kg/m3
333.15 K, w2 = 0.02
  viscosity: 118.9 ± 12 mPa·s
  mass density: 1117.1 ± 1.4 kg/m3
333.15 K, w2 = 0.029
  viscosity: 111.7 ± 2.7 mPa·s
  mass density: 1116.5 ± 1.4 kg/m3
333.15 K, w2 = 0.045
  viscosity: 81.4 ± 1.9 mPa·s
  mass density: 1115.6 ± 1.4 kg/m3
333.15 K, w2 = 0.066
  viscosity: 58 ± 1.3 mPa·s
  mass density: 1114.7 ± 1.3 kg/m3
333.15 K, w2 = 0.077
  viscosity: 48.2 ± 1.1 mPa·s
  mass density: 1114.1 ± 1.3 kg/m3
333.15 K, w2 = 0.121
  viscosity: 28.1 ± 0.6 mPa·s
  mass density: 1111.8 ± 1.3 kg/m3
333.15 K, w2 = 0.167
  viscosity: 19 ± 0.4 mPa·s
  mass density: 1110 ± 1.2 kg/m3
333.15 K, w2 = 0.218
  viscosity: 12.7 ± 0.3 mPa·s
  mass density: 1105.6 ± 1.2 kg/m3
333.15 K, w2 = 0.24
  viscosity: 9.5 ± 0.2 mPa·s
  mass density: 1101.5 ± 1.2 kg/m3
338.15 K, w2 = 0.004
  viscosity: 163.1 ± 4.4 mPa·s
  mass density: 1113.3 ± 1.4 kg/m3
338.15 K, w2 = 0.011
  viscosity: 134.6 ± 3.4 mPa·s
  mass density: 1114 ± 1.4 kg/m3
338.15 K, w2 = 0.02
  viscosity: 94.6 ± 9.5 mPa·s
  mass density: 1114.2 ± 1.4 kg/m3
338.15 K, w2 = 0.029
  viscosity: 89 ± 2.1 mPa·s
  mass density: 1113.6 ± 1.4 kg/m3
338.15 K, w2 = 0.045
  viscosity: 65.8 ± 1.5 mPa·s
  mass density: 1112.6 ± 1.4 kg/m3
338.15 K, w2 = 0.066
  viscosity: 47.5 ± 1.1 mPa·s
  mass density: 1111.8 ± 1.3 kg/m3
338.15 K, w2 = 0.077
  viscosity: 39.7 ± 0.9 mPa·s
  mass density: 1111.2 ± 1.3 kg/m3
338.15 K, w2 = 0.121
  viscosity: 23.5 ± 0.5 mPa·s
  mass density: 1108.6 ± 1.3 kg/m3
338.15 K, w2 = 0.167
  viscosity: 16.1 ± 0.4 mPa·s
  mass density: 1106.8 ± 1.2 kg/m3
338.15 K, w2 = 0.218
  viscosity: 11 ± 0.2 mPa·s
  mass density: 1102.4 ± 1.2 kg/m3
338.15 K, w2 = 0.24
  viscosity: 8.3 ± 0.2 mPa·s
  mass density: 1098.3 ± 1.2 kg/m3
343.15 K, w2 = 0.004
  viscosity: 128.7 ± 3.3 mPa·s
  mass density: 1110.2 ± 1.4 kg/m3
343.15 K, w2 = 0.011
  viscosity: 106.9 ± 2.6 mPa·s
  mass density: 1111 ± 1.4 kg/m3
343.15 K, w2 = 0.02
  viscosity: 76.3 ± 7.7 mPa·s
  mass density: 1111.3 ± 1.4 kg/m3
343.15 K, w2 = 0.029
  viscosity: 72 ± 1.6 mPa·s
  mass density: 1110.7 ± 1.4 kg/m3
343.15 K, w2 = 0.045
  viscosity: 53.8 ± 1.2 mPa·s
  mass density: 1109.8 ± 1.3 kg/m3
343.15 K, w2 = 0.066
  viscosity: 39.3 ± 0.9 mPa·s
  mass density: 1108.8 ± 1.3 kg/m3
343.15 K, w2 = 0.077
  viscosity: 33.1 ± 0.7 mPa·s
  mass density: 1108.1 ± 1.3 kg/m3
343.15 K, w2 = 0.121
  viscosity: 19.9 ± 0.4 mPa·s
  mass density: 1105.5 ± 1.3 kg/m3
343.15 K, w2 = 0.167
  viscosity: 13.8 ± 0.3 mPa·s
  mass density: 1103.7 ± 1.2 kg/m3
343.15 K, w2 = 0.218
  viscosity: 9.5 ± 0.2 mPa·s
  mass density: 1099.2 ± 1.2 kg/m3
343.15 K, w2 = 0.24
  viscosity: 7.3 ± 0.2 mPa·s
  mass density: 1095 ± 1.2 kg/m3
